# In ChEMBL document CHEMBL5096235, “In Silico Exploration and Biological Evaluation of Bispecific Peptides Derived from Anti-HER2 Antibodies and Peptide-Camptothecin Conjugates for HER2-Positive Breast Cancer” (J Med Chem, 2022):
# Residues, ends and D or L forms follow the SMILES beside them.
# Target: Receptor tyrosine-protein kinase erbB-2 (Homo sapiens, UniProt P04626)
# Assay: Binding affinity to recombinant HER2 (unknown origin) assessed as dissociation constant by SPR analysis
# Chain of Receptor tyrosine-protein kinase erbB-2 (P04626 whole entry): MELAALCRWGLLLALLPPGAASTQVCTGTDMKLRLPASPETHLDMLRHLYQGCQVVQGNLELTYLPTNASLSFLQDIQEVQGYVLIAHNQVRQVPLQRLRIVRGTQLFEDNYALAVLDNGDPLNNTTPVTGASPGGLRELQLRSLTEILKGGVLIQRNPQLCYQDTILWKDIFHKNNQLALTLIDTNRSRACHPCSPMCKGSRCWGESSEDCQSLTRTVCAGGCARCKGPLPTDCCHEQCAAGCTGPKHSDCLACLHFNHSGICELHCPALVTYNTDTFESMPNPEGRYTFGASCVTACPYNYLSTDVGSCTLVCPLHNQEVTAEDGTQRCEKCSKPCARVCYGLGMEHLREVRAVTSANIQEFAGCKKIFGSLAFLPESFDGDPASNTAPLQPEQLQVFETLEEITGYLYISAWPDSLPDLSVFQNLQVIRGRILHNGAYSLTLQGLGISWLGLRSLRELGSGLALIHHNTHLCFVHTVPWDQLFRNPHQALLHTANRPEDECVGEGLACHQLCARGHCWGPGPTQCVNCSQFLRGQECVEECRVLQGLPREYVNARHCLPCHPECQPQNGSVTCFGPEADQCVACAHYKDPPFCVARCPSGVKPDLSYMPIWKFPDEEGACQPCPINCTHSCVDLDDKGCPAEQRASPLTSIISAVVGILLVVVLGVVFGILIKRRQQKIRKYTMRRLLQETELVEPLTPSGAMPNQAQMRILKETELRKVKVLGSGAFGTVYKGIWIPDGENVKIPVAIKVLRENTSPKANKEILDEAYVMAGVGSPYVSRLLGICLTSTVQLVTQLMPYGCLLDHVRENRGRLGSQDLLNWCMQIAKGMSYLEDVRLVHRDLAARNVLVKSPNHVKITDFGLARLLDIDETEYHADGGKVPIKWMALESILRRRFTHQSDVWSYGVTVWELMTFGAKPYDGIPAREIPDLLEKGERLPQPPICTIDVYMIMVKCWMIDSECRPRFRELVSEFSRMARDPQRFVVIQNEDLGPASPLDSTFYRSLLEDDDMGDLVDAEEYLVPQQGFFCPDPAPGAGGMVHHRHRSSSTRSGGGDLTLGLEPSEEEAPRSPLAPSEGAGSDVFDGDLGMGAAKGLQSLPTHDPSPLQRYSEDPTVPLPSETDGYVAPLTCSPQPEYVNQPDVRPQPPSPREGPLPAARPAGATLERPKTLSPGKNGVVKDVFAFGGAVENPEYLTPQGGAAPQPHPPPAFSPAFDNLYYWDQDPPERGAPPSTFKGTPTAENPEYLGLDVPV
row,Structure (SMILES),Kd [µM]
1,N=C(N)NCCC[C@H](NC(=O)[C@H](CCC(N)=O)NC(=O)[C@H](CC(N)=O)NC(=O)[C@H](Cc1ccc(O)cc1)NC(=O)[C@H](Cc1c[nH]c2ccccc12)NC(=O)[C@H](CO)NC(=O)[C@H](Cc1c[nH]c2ccccc12)NC(=O)CNC(=O)[C@H](Cc1c[nH]c2ccccc12)NC(=O)[C@H](CC(N)=O)NC(=O)[C@@H]1CCCN1C(=O)[C@@H](N)CC(N)=O)C(=O)N[C@@H](Cc1ccccc1)C(=O)N[C@@H](CCCCN)C(=O)O (H-NPNWGWSWYNQRFK-OH),8.9
2,N=C(N)NCCC[C@H](NC(=O)CNC(=O)[C@H](Cc1c[nH]c2ccccc12)NC(=O)[C@@H]1CCCN1C(=O)[C@@H]1CCCN1C(=O)[C@@H](N)CC(N)=O)C(=O)N[C@@H](CO)C(=O)N[C@@H](CCCNC(=N)N)C(=O)N[C@@H](Cc1ccc(O)cc1)C(=O)N[C@@H](CC(N)=O)C(=O)N[C@@H](CCC(N)=O)C(=O)N[C@@H](CCCNC(=N)N)C(=O)N[C@@H](Cc1ccccc1)C(=O)N[C@@H](CCCCN)C(=O)O (H-NPPWGRSRYNQRFK-OH),12.3
3,N=C(N)NCCC[C@H](NC(=O)[C@H](CCC(N)=O)NC(=O)[C@H](CC(N)=O)NC(=O)[C@H](Cc1ccc(O)cc1)NC(=O)[C@H](CCCNC(=N)N)NC(=O)[C@H](CO)NC(=O)[C@H](Cc1c[nH]c2ccccc12)NC(=O)CNC(=O)[C@H](Cc1c[nH]c2ccccc12)NC(=O)[C@H](CC(N)=O)NC(=O)[C@@H]1CCCN1C(=O)[C@@H](N)CC(N)=O)C(=O)N[C@@H](Cc1ccccc1)C(=O)N[C@@H](CCCCN)C(=O)O (H-NPNWGWSRYNQRFK-OH),9.89
4,N=C(N)NCCC[C@H](NC(=O)CNC(=O)[C@H](Cc1c[nH]c2ccccc12)NC(=O)[C@H](CC(N)=O)NC(=O)[C@@H]1CCCN1C(=O)[C@@H](N)CC(N)=O)C(=O)N[C@@H](CO)C(=O)N[C@@H](Cc1c[nH]c2ccccc12)C(=O)N[C@@H](Cc1ccc(O)cc1)C(=O)N[C@@H](CC(N)=O)C(=O)N[C@@H](CCC(N)=O)C(=O)N[C@@H](CCCNC(=N)N)C(=O)N[C@@H](Cc1ccccc1)C(=O)N[C@@H](CCCCN)C(=O)O (H-NPNWGRSWYNQRFK-OH),5.7
5,N=C(N)NCCC[C@H](NC(=O)[C@H](CCC(N)=O)NC(=O)[C@H](CC(N)=O)NC(=O)[C@H](Cc1ccc(O)cc1)NC(=O)[C@H](Cc1c[nH]c2ccccc12)NC(=O)[C@H](CO)NC(=O)[C@H](Cc1ccc(O)cc1)NC(=O)CNC(=O)[C@H](Cc1c[nH]c2ccccc12)NC(=O)[C@H](CC(N)=O)NC(=O)[C@@H]1CCCN1C(=O)[C@@H](N)CC(N)=O)C(=O)N[C@@H](Cc1ccccc1)C(=O)N[C@H](C=O)CCCCN (H-NPNWGYSWYNQRFK-aldehyde),14.3
6,CC[C@H](C)[C@H](NC(=O)[C@@H](N)CCCNC(=N)N)C(=O)N[C@@H](CCCCN)C(=O)N1CCC[C@H]1C(=O)N[C@@H](CCCNC(=N)N)C(=O)N[C@@H](CCCCN)C(=O)NCC(=O)N[C@@H](Cc1ccc(O)cc1)C(=O)N[C@H](C(=O)N[C@@H](CCCNC(=N)N)C(=O)O)[C@@H](C)O (H-RIKPRKGYTR-OH),7.6
